Results published in patent US7371536B2, “Methods for transporting vitamin C” (priority 1999, dated 2008).

Key:
Format in all cases: cell-based
human SVCT2 = molecular target: T1, human SVCT2 (Homo sapiens, UniProt Q9UGH3, A167T); test: L-[14C]ascorbic acid radiotracer uptake in Xenopus oocytes expressing human SVCT2
T1 construct: expressed in transfected cells; host or cells: Xenopus laevis oocytes injected with cRNA (vector pTLN2)
Method: (§1) Functional characterization in Xenopus oocytes—SVCT1 and SVCT2 cDNAs were subcloned into the pTLN2 vector (to improve functional expression in oocytes) and used for cRNA synthesis in vitro using the MEGAscript kit and T7 RNA polymerase (from Ambion). Oocytes were isolated from Xenopus laevis, treated with collagenase A and maintained at 18° C. in modified Barths' medium. Oocytes were injected with 15 ng SVCT1 or SVCT2 cRNA or water only. The radiotracer uptake and voltage-clamp experiments described below were conducted 2-5 days post-injection in standard medium of composition 100 mM NaCl, 2 mM KCl, 1 mM CaCl2, 1 mM MgCl2, and 10 mM HEPES (buffered to pH 7.5 with Tris base). For low-Na^+ or Na^+-free media, NaCl was replaced with choline chloride. For pH-dependence experiments, Na^+ media were buffered to between pH 5.5 and pH 8.0 using 0-5 mM MES, 0-5 mM HEPES and 0-5 mM Tris base. L-Ascorbic acid-containing solutions were always freshly prepared and used immediately. Radiotracer uptake was determined by incubating 8-12 oocytes for 30 min (within the time-course of linear uptake) in standard Na^+, low-Na^+ or Na^+-free media with 10-500 μM L-[1-^14C]ascorbic acid (final specific activity ≈0.3 GBq/mmol). Oocytes were solubilized with 10% SDS and carbon-14 content measured by liquid scintillation counting. A two-microelectrode voltage-clamp was used to measure currents associated with SVCT1 expressed in oocytes. Oocytes were superfused at 22° C. in standard Na^+ medium and clamped at −50 mV. Current was continuously monitored by sampling at 1 Hz. Test solutions were always washed out with substrate-free, Na^+-free medium at pH 7.5 for several minutes. Once again, saturation kinetics data were fit to a modified Hill equation in which I and Imax were replaced by uptake V and maximal velocity Vmax for analysis of radiotracer uptake data.

human SVCT1 [1] = molecular target: T2, human SVCT1 (Homo sapiens, UniProt Q9UHI7); test: Two-microelectrode voltage-clamp of Xenopus oocytes expressing human SVCT1
T2 construct: expressed in transfected cells; host or cells: Xenopus laevis oocytes injected with cRNA (vector pTLN2)
T2 sequence (Q9UHI7 whole entry): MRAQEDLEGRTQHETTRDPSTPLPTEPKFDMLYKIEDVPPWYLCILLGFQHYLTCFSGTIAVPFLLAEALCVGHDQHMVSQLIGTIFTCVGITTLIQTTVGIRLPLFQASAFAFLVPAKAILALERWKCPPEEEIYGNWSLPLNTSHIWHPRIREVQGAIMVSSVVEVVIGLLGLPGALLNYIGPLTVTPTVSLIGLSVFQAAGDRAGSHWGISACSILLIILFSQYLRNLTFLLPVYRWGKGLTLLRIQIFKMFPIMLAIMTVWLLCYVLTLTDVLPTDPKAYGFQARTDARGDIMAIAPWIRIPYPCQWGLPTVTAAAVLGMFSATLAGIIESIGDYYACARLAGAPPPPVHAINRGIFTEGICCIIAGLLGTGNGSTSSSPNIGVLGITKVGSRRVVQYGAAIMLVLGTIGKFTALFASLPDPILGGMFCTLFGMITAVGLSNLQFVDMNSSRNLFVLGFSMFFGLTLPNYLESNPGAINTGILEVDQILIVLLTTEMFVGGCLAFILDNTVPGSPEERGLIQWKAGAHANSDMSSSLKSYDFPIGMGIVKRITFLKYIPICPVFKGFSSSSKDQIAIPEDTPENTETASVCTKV
Method: as §1

human SVCT1 [2] = molecular target: T2, human SVCT1; test: L-[14C]ascorbic acid radiotracer uptake in Xenopus oocytes expressing human SVCT1
Method: as §1, with “Radiotracer uptake was determined by incubating 8-12 oocytes for 30 min (within the time-course of linear uptake) in standard Na^+, low-Na^+ or Na^+-free media with 10-500 μM L-[1-^14C]ascorbic acid (final specific activity ≈0.3 GBq/mmol).” left out

T1 sequence (Q9UGH3 whole entry A167T): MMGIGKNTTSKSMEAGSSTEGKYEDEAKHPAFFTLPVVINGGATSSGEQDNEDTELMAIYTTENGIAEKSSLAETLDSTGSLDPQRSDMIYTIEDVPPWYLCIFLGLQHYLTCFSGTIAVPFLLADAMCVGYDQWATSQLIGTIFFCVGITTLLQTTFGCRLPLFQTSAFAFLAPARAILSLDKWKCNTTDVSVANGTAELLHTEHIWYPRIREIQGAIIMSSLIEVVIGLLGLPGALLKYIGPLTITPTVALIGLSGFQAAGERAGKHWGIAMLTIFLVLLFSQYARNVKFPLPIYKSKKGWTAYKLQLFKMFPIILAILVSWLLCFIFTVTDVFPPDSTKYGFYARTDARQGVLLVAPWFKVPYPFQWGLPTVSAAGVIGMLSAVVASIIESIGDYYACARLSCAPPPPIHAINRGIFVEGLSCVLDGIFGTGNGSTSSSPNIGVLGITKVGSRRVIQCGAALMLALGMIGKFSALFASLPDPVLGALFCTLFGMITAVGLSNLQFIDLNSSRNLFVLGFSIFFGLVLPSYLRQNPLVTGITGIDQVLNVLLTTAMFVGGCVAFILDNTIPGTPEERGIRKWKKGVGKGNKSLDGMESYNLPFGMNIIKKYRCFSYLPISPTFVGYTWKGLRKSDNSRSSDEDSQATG

SMILES: O=C1O[C@H]([C@@H](O)CO)C(O)=C1O [L-ascorbic acid]
- stimulation of uptake compared with control oocytes (human SVCT2): 15 fold
- uptake of L-[14C]ascorbic acid (human SVCT2): 1.2±0.1 pmol/min per oocyte
- K0.5 of L-[14C]ascorbic acid transport (human SVCT2; radiotracer uptake, FIG. 10): 65 µM
- inhibition of the uptake of 100 μM L-[14C]ascorbic acid (in words) (human SVCT2; saturating concentration): inhibited
- reduction in current at pH 5.5 compared with pH 7.5 (human SVCT1 [1]; 500 μM L-ascorbic acid, −50 mV): > 60%
- L-ascorbic acid-evoked current (human SVCT1 [1]; 500 μM, −50 mV, mean±SEM from eight oocytes): −114±20 nA
- L-ascorbic acid-evoked reversible inward currents (human SVCT1 [1]; in the presence of extracellular Na^+): up to −150 nA
- K0.5 based on evoked currents (human SVCT1 [1]; −50 mV, 100 mM Na^+, mean±propagated SEM from 5 oocytes): 54 ± 10 µM
- stimulation of uptake compared with water-injected control oocytes (human SVCT1 [2]; 500 μM L-[14C]ascorbic acid): 200 fold
- uptake of L-[14C]ascorbic acid (human SVCT1 [2]; 500 μM L-[14C]ascorbic acid): 15.5±1.2 pmol/min per oocyte
- Hill coefficient (nH) (human SVCT1 [2]; radiotracer uptake): ~1
- half-maximal concentration (K0.5) of uptake (human SVCT1 [2]; radiotracer uptake, Michaelis-Menten-type saturation): ≈ 90 μM
